Reference: patent publication US9884048B2, “ERK inhibitors” (Merck Sharp & Dohme Corp., priority 2014, dated 2018)

Each molecule was assayed against phosphorylated active hERK2 enzyme (Homo sapiens (Human), UniProt P28482). Details: read-out: ERK2 IC50; IMAP-FP assay; 0.5 nM hERK2, 30 μM ATP; 10 point titration, 3 μM starting concentration.
phosphorylated active hERK2 enzyme, sequence (P28482 whole entry): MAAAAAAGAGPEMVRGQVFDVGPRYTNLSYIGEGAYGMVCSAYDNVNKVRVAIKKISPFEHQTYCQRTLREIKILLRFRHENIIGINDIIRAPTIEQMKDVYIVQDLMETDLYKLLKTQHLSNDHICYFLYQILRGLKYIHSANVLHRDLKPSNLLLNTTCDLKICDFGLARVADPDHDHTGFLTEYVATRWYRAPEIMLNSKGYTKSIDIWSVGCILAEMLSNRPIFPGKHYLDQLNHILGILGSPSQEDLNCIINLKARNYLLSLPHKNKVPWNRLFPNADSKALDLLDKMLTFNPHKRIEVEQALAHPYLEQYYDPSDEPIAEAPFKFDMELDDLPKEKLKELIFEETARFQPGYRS
Molecule `Cc1cc(-n2ncc3cc(NC(=O)N[C@H]4CCN(C)C4)ncc32)ccn1` [Example 21, 1-[1-(2-methylpyridin-4-yl)-1H-pyrazolo[3,4-c]pyridin-5-yl]-3-[(3S)-1-methylpyrrolidin-3-yl)urea] has an IC50 of 767 nM. Work on `Cc1cc(-n2ncc3cc(NC(=O)NC4CC(=O)N(C)C4)ncc32)ccn1` (stereo not drawn) [Example 22, 1-(1-methyl-5-oxopyrrolidin-3-yl)-3-[1-(2-methylpyridin-4-yl)-1H-pyrazolo[3,4-c]pyridin-5-yl)urea] yielded an IC50 of 181 nM. Work on `Cc1cc(-n2ncc3cc(NC(=O)NC4CCN(C)C4=O)ncc32)ccn1` (stereo not drawn) [Example 23, 1-(1-methyl-2-oxopyrrolidin-3-yl)-3-[1-(2-methylpyridin-4-yl)-1H-pyrazolo[3,4-c]pyridin-5-yl)urea] yielded an IC50 of 314 nM. In the case of `Cc1cc(-n2ncc3cc(NC(=O)N[C@H]4CN(C)C[C@@H]4[C@@H]4CCCOC4)ncc32)ccn1` [Example 24, 1-[1-(2-methylpyridin-4-yl)-1H-pyrazolo[3,4-c]pyridin-5-yl]-3-{(3R,4S)-1-methyl-4-[(3S)-tetrahydro-2H-pyran-3-yl]pyrrolidin-3-yl}urea], the IC50 is reported as 140 nM. In the case of `Cc1cc(-n2ncc3cc(NC(=O)N[C@H]4CN(C)C[C@@H]4C)ncc32)ccn1` [Example 25, 1-[(3R,4S)-1,4-dimethylpyrrolidin-3-yl]-3-[1-(2-methylpyridin-4-yl)-1H-pyrazolo[3,4-c]pyridin-5-yl]urea], the IC50 is reported as 66.4 nM. For `Cc1cc(-n2ncc3cc(NC(=O)N[C@@H]4C[C@H](C)N(C)C4)ncc32)ccn1` [Example 26, 1-[(3R,5S)-1,5-dimethylpyrrolidin-3-yl]-3-[1-(2-methylpyridin-4-yl)-1H-pyrazolo[3,4-c]pyridin-5-yl]urea], the IC50 was 275 nM. Molecule `Cc1cc(-n2ncc3cc(NC(=O)NCC4CN(C(C)C(F)(F)F)C4)ncc32)ccn1` (stereo not drawn) [Example 27, 1-[1-(2-methylpyridin-4-yl)-1H-pyrazolo[3,4-c]pyridin-5-yl]-3-{[1-(2,2,2-trifluoro-1-methylethyl)azetidin-3-yl]methyl}urea] has an IC50 of 122 nM. `CCN1CC[C@@H](NC(=O)Nc2cc3cnn(-c4ccnc(C)c4)c3cn2)C1` [Example 28, 1-[(3R)-1-ethylpyrrolidin-3-yl]-3-[1-(2-methylpyridin-4-yl)-1H-pyrazolo[3,4-c]pyridin-5-yl]urea] was tested, and the IC50 was 104 nM. `CCCN1CC[C@@H](NC(=O)Nc2cc3cnn(-c4ccnc(C)c4)c3cn2)C1` [Example 29, 1-[1-(2-methylpyridin-4-yl)-1H-pyrazolo[3,4-c]pyridin-5-yl]-3-[(3R)-1-propylpyrrolidin-3-yl]urea] gave an IC50 of 453 nM. For `Cc1cc(-n2ncc3cc(NC(=O)N[C@H]4CN(C)C[C@@H]4C4CC4)ncc32)ccn1` [Example 30, 1-[(3R,4S)-4-cyclopropyl-1-methylpyrrolidin-3-yl]-3-[1-(2-methylpyridin-4-yl)-1H-pyrazolo[3,4-c]pyridin-5-yl]urea], the IC50 was 110 nM. `Cc1cc(-n2ncc3cc(NC(=O)N[C@H]4CN(C)C[C@@H]4C4CCCCC4)ncc32)ccn1` [Example 31, 1-[(3R,4S)-4-cyclohexyl-1-methylpyrrolidin-3-yl]-3-[1-(2-methylpyridin-4-yl)-1H-pyrazolo[3,4-c]pyridin-5-yl]urea] was tested, and the IC50 was 35.1 nM. `Cc1cc(-n2ncc3cc(NC(=O)NCc4cccc(NS(C)(=O)=O)c4)ncc32)ccn1` [Example 32, N-{3-[({[1-(2-methylpyridin-4-yl)-1H-pyrazolo[3,4-c]pyridin-5-yl]carbamoyl}amino)methyl]phenyl}methanesulfonamide] was tested, and the IC50 was 0.442 nM. With `COC[C@@H](NC(=O)Nc1cc2cnn(-c3ccnc(C)c3)c2cn1)c1ccc(F)cc1` [Example 33, 1-[(1S)-1-(4-fluorophenyl)-2-methoxyethyl]-3-[1-(2-methylpyridin-4-yl)-1H-pyrazolo[3,4-c]pyridin-5-yl]urea] the IC50 was 590 nM. Molecule `Cc1cc(-n2ncc3cc(NC(=O)N[C@@H]4CCN(c5ccc(F)cc5)C4)ncc32)ccn1` [Example 34, 1-[(3R)-1-(4-fluorophenyl)pyrrolidin-3-yl]-3-[1-(2-methylpyridin-4-yl)-1H-pyrazolo[3,4-c]pyridin-5-yl]urea] has an IC50 of 762 nM. `Cn1cc2cc(-n3ncc4cc(NC(=O)NC(c5ccccc5)c5cnco5)ncc43)ccc2n1` (stereo not drawn) [Example 35, 1-[1-(2-methyl-2H-indazol-5-yl)-1H-pyrazolo[3,4-c]pyridin-5-yl]-3-[1,3 oxazol-5-yl(phenyl)methyl]urea] gave an IC50 of 1.56 nM. `O=C(NCc1ccccc1)Nc1cc2cnn(-c3ccc(F)cc3)c2cn1` [Example 37, 1-benzyl-3-[1-(4-fluorophenyl)-1H-pyrazolo[3,4-c]pyridin-5-yl)urea] showed an IC50 of 19.8 nM. For `O=C(Nc1cc2cnn(-c3ccncc3)c2cn1)N[C@@H](c1ccccc1)C(F)(F)F` [Example 38, 1-(1-pyridin-4-yl-1H-pyrazolo[3,4-c]pyridin-5-yl)-3-[(1S)-2,2,2-trifluoro-1-phenylethyl]urea], the IC50 was 19.4 nM. For `O=C(NCc1cccnc1)Nc1cc2cnn(-c3ccncc3)c2cn1` [Example 39, 1-(pyridin-3-ylmethyl)-3-(1-pyridin-4-yl-1H-pyrazolo[3,4-c]pyridin-5-yl)urea], the IC50 was 171 nM. With `O=C(NCCc1ccccc1F)Nc1cc2cnn(-c3ccncc3)c2cn1` [Example 40, 1-[2-(2-fluorophenyl)ethyl]-3-(1-pyridin-4-yl-1H-pyrazolo[3,4-c]pyridin-5-yl)urea] the IC50 was 9.2 nM. `O=C(NCc1cccc(Cl)c1)Nc1cc2cnn(-c3ccncc3)c2cn1` [Example 41, 1-(3-chlorobenzyl)-3-(1-pyridin-4-yl-1H-pyrazolo[3,4-c]pyridin-5-yl)urea] gave an IC50 of 0.499 nM. For `O=C(NCc1ccc(Cl)cc1)Nc1cc2cnn(-c3ccncc3)c2cn1` [Example 42, 1-(4-chlorobenzyl)-3-(1-pyridin-4-yl-1H-pyrazolo[3,4-c]pyridin-5-yl)urea], the IC50 was 8.03 nM. For `Cc1cc(-n2ncc3cc(NC(=O)N[C@H](C)c4cccc(Cl)c4)ncc32)ccn1` [Example 43, 1-[(1R)-1-(3-chlorophenyl)ethyl]-3-[1-(2-methylpyridin-4-yl)-1H-pyrazolo[3,4-c]pyridin-5-yl]urea], the IC50 was 0.952 nM. `Cc1cc(-n2ncc3cc(NC(=O)N[C@H](C)c4ccccc4Cl)ncc32)ccn1` [Example 44, 1-[(1R)-1-(2-chlorophenyl)ethyl]-3-[1-(2-methylpyridin-4-yl)-1H-pyrazolo[3,4-c]pyridin-5-yl]urea] gave an IC50 of 15.6 nM. In the case of `Cc1cc(-n2ncc3cc(NC(=O)NC(C)c4ccc(-n5cncn5)cc4)ncc32)ccn1` (stereo not drawn) [Example 45, 1-[1-(2-methylpyridin-4-yl)-1H-pyrazolo[3,4-c]pyridin-5-yl]-3-{1-[4-(1H-1,2,4-triazol-1-yl)phenyl]ethyl}urea], the IC50 is reported as 166 nM. `Cc1cc(-n2ncc3cc(NC(=O)NC4CC(C)(C)Oc5ccccc54)ncc32)ccn1` (stereo not drawn) [Example 46, 1-(2,2-dimethyl-3,4-dihydro-2H-chromen-4-yl)-3-[1-(2-methylpyridin-4-yl)-1H-pyrazolo[3,4-c]pyridin-5-yl]urea] was tested, and the IC50 was 174 nM. `Cc1cc(-n2ncc3cc(NC(=O)NC(C)c4ccc(OC(F)(F)F)cc4)ncc32)ccn1` (stereo not drawn) [Example 47] was tested, and the IC50 was 40.3 nM. Molecule `Cc1cc(-n2ncc3cc(NC(=O)NC(C)c4cccc(OC(F)(F)F)c4)ncc32)ccn1` (stereo not drawn) [Example 48, 1-[1-(2-methylpyridin-4-yl)-1H-pyrazolo[3,4-c]pyridin-5-yl]-3-{1-[3-(trifluoromethoxy)phenyl]ethyl}urea] has an IC50 of 10.7 nM.
